Data on 30 compounds can be found in ChEMBL document CHEMBL5291721, “A preclinical secondary pharmacology resource illuminates target-adverse drug reaction associations of marketed drugs” (Nat Commun, 2023).

Assay [1] deals with Voltage-gated inwardly rectifying potassium channel KCNH2 (Homo sapiens, UniProt Q12809). The assay is classed as functional. As to conditions: read-out: AC50.
For assay [2], the target named is Adenosine receptor A2a (Homo sapiens, UniProt P29274).
Assay [3] addresses 3',5'-cyclic-AMP phosphodiesterase 4D (Homo sapiens, UniProt Q08499). The assay is classed as functional.
Assay [4] deals with T1, Equilibrative nucleoside transporter 1 (Homo sapiens, UniProt Q99808).
T1 sequence (Q99808 whole entry): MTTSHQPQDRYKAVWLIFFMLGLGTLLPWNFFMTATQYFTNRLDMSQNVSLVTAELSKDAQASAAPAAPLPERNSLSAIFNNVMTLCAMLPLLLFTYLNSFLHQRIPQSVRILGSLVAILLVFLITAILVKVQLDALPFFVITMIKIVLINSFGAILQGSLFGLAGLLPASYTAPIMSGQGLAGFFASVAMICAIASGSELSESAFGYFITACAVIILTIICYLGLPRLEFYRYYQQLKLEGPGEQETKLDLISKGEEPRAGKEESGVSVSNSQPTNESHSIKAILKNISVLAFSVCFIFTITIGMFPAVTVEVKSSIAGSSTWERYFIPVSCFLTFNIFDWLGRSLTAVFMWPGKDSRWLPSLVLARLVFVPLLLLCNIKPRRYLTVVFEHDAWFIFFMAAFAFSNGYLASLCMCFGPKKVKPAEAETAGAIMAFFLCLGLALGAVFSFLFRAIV

Assay [5] addresses Motilin receptor (Homo sapiens, UniProt O43193).
The target of assay [6] is Delta-type opioid receptor (Homo sapiens, UniProt P41143).
Assay [7] has as its target Growth hormone secretagogue receptor type 1 (Homo sapiens, UniProt Q92847).
Assay [8] concerns the target D(3) dopamine receptor (Homo sapiens, UniProt P35462).
The target in assay [9] is T2, 5-hydroxytryptamine receptor 1A (Homo sapiens, UniProt P08908).
T2 sequence (P08908 whole entry): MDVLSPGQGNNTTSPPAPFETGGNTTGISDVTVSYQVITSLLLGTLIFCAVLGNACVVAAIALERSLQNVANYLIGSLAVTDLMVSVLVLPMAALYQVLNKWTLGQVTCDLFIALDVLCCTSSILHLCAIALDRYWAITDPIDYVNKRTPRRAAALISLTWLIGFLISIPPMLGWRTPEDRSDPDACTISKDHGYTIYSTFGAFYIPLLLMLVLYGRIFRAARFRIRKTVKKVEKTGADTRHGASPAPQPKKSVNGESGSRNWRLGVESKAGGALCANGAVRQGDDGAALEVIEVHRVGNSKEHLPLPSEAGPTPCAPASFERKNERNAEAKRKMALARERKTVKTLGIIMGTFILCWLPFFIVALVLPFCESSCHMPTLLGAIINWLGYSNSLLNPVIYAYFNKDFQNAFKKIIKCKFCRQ
It counts as functional, cell-based.

In assay [10] the target is cGMP-inhibited 3',5'-cyclic phosphodiesterase 3A (Homo sapiens, UniProt Q14432). It counts as functional.
Assay [11] deals with T3, 5-hydroxytryptamine receptor 2C (Homo sapiens, UniProt P28335).
T3 sequence (P28335 whole entry): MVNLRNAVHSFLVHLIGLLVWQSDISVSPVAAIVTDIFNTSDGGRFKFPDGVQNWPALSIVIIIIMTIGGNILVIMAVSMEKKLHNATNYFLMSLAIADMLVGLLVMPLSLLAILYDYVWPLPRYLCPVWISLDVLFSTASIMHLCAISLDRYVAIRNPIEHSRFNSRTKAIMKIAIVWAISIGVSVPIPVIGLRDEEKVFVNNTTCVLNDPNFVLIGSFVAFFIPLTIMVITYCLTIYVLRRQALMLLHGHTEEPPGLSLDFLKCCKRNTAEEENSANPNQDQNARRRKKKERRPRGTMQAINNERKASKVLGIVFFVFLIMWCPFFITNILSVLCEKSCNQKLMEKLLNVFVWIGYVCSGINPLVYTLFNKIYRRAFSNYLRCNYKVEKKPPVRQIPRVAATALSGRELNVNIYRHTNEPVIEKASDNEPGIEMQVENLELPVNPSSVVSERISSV

Assay [12] deals with Sodium-dependent dopamine transporter (Homo sapiens, UniProt Q01959).
For assay [13], the target named is T4, Alpha-2A adrenergic receptor (Homo sapiens, UniProt P08913).
T4 sequence (P08913 whole entry): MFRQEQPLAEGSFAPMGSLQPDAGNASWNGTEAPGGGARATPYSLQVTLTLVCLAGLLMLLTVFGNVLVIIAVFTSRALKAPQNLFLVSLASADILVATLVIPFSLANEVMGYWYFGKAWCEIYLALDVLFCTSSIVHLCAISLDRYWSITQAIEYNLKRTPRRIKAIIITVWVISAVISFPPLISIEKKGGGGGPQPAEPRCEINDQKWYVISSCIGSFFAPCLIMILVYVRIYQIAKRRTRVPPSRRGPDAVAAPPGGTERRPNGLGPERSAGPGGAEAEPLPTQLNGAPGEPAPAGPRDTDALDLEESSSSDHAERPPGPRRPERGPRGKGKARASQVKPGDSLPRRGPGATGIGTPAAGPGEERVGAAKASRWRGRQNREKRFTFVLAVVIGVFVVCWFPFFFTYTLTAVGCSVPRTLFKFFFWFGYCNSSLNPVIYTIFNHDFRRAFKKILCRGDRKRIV
It counts as functional, cell-based.

For assay [14], the target named is Sodium-dependent noradrenaline transporter (Homo sapiens, UniProt P23975).
Note: assay procedure not described here.

D(3) dopamine receptor, sequence (P35462 whole entry): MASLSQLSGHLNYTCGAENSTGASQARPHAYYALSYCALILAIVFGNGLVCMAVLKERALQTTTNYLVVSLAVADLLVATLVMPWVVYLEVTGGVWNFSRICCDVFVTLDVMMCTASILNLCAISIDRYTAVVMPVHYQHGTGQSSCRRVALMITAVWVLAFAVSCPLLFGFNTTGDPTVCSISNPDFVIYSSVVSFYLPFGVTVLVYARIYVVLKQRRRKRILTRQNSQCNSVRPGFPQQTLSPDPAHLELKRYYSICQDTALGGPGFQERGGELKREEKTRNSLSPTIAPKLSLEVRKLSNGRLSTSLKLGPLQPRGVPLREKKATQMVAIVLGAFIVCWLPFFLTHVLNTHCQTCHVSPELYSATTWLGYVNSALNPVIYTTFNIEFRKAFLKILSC
Motilin receptor, sequence (O43193 whole entry): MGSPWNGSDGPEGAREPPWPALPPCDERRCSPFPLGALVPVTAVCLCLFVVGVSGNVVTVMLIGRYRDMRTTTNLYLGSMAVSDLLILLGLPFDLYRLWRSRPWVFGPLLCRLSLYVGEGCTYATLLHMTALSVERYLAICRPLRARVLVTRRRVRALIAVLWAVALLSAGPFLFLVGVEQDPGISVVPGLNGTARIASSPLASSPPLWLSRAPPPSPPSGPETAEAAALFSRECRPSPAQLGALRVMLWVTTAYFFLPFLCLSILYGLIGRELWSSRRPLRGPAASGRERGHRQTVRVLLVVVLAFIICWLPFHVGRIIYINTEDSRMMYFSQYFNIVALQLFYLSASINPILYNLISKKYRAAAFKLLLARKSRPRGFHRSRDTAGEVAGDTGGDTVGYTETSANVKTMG
3',5'-cyclic-AMP phosphodiesterase 4D, sequence (Q08499 whole entry): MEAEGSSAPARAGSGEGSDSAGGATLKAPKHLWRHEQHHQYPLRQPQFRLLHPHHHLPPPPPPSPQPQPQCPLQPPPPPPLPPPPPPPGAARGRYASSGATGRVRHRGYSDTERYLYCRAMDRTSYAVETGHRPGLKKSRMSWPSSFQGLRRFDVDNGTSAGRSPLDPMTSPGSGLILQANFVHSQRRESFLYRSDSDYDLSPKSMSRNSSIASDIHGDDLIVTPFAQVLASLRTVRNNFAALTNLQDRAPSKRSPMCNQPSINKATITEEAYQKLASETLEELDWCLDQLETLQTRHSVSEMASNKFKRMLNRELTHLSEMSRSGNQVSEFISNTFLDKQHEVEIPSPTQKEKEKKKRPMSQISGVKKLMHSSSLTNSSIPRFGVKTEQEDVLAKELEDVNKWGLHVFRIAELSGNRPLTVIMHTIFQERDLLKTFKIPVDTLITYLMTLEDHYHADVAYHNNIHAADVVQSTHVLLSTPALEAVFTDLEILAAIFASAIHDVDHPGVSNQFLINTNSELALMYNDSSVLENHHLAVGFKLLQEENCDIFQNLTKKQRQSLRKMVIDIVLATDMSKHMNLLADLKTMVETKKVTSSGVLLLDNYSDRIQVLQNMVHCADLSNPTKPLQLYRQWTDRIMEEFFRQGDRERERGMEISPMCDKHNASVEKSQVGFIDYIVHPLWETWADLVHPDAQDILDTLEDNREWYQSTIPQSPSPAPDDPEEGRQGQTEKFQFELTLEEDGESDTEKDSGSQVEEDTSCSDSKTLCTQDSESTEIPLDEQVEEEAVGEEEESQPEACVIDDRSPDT
Delta-type opioid receptor, sequence (P41143 whole entry): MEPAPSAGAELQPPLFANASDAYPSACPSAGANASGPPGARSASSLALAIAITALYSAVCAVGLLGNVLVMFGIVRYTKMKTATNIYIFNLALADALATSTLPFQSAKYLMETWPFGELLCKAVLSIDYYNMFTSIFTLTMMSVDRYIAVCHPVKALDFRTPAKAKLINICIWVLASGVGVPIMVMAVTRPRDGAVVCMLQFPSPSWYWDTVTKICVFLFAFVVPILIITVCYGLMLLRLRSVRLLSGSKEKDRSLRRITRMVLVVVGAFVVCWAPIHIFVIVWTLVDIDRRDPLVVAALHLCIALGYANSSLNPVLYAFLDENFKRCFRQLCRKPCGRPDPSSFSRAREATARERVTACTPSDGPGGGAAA
Adenosine receptor A2a, sequence (P29274 whole entry): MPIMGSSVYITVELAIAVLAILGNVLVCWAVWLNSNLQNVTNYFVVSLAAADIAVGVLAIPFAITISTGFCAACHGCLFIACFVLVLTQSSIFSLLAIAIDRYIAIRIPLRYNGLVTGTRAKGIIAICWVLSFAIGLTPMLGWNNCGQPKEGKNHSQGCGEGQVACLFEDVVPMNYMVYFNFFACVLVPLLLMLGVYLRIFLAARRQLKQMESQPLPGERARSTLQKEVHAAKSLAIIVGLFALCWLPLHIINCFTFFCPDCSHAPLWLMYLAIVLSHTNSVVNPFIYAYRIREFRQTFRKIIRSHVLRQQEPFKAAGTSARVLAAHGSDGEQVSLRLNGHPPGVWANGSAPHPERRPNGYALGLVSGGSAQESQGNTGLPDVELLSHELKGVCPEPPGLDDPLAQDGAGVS
Sodium-dependent dopamine transporter, sequence (Q01959 whole entry): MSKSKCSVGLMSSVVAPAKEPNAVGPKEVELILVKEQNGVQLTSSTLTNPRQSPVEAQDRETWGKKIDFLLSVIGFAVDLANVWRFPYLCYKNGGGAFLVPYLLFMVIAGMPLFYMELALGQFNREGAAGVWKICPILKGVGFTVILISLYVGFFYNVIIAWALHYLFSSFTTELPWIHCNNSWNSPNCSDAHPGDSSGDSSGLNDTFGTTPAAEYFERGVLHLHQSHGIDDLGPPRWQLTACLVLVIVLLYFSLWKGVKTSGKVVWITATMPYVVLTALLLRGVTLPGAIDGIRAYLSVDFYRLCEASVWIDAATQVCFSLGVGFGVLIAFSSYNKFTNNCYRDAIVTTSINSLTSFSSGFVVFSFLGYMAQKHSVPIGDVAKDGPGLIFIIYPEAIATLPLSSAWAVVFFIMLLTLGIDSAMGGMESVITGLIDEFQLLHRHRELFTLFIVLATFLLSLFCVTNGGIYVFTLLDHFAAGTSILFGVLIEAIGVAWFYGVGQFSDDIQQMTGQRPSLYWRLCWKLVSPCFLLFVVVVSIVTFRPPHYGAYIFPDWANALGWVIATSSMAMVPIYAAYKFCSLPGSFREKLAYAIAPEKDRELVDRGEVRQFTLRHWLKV
cGMP-inhibited 3',5'-cyclic phosphodiesterase 3A, sequence (Q14432 whole entry): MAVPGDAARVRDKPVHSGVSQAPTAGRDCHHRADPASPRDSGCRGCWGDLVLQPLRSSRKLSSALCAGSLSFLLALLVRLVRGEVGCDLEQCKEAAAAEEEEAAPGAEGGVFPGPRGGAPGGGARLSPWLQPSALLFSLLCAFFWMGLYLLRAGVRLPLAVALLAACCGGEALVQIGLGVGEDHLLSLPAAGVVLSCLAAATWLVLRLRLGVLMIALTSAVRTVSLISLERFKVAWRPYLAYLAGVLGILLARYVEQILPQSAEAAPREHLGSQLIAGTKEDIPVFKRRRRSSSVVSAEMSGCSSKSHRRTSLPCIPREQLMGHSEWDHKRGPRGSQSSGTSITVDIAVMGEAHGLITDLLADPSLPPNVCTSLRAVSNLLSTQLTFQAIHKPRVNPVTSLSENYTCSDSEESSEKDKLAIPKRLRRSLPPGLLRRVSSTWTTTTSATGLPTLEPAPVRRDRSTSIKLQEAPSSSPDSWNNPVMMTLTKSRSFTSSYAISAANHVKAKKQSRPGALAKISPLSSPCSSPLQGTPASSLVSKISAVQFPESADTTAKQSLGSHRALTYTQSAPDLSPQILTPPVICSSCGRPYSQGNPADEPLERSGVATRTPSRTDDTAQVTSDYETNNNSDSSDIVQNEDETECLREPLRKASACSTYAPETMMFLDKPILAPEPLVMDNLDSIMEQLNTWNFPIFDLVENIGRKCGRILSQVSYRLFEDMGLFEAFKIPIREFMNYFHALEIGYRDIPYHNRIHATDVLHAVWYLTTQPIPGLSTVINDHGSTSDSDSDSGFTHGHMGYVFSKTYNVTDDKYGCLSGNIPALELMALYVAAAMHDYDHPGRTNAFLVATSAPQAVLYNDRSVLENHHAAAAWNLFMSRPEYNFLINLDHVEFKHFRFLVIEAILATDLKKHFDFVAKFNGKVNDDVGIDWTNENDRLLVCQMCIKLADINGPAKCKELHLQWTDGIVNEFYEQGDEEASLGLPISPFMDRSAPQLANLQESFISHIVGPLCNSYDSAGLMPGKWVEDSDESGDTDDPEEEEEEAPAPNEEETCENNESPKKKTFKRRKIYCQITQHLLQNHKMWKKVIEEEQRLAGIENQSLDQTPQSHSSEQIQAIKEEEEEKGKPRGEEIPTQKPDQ
Growth hormone secretagogue receptor type 1, sequence (Q92847 whole entry): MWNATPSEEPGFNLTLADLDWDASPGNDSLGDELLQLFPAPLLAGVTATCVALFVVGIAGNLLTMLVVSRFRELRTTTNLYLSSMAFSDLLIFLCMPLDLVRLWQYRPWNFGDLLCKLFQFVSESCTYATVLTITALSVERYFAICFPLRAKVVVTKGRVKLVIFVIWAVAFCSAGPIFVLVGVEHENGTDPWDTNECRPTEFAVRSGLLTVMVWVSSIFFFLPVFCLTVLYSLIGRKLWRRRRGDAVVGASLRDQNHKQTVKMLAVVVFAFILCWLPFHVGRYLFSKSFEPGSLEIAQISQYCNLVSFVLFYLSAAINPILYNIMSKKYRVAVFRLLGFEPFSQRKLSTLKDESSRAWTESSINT

For orientation: AC50 means the midpoint of the concentration-response curve, whichever way the signal moves. For `CC(=O)OC[C@H]1O[C@@H](n2ccc(=O)[nH]c2=O)[C@H](OC(C)=O)[C@@H]1OC(C)=O` [URIDINE TRIACETATE], in [1], the AC50 is > 30 µM.
On the same count and under the same terms, for `CCC(=O)c1c(O)cc(O)cc1O` [FLOPROPIONE] the value was > 30 µM; for `O=C1c2c(O)c(=O)ccn2N([C@@H]2c3ccccc3SCc3c2ccc(F)c3F)[C@@H]2COCCN12` [BALOXAVIR], > 30 µM.
In the case of `CCc1nn(CCCN2CCN(c3cccc(Cl)c3)CC2)c(=O)n1CCOc1ccccc1` [NEFAZODONE], the AC50 in assay [2] was > 30 µM; in assay [3], > 10 µM; in assay [1], 0.89 µM; in assay [4], 19.2 µM; in [5] it was > 10 µM; in assay [6], > 10 µM. Besides, the concentration at half-maximal activity (AC50) in assay [7] was > 30 µM; in assay [8], 1.2 µM; in assay [9], 2 µM; in assay [10], > 10 µM.
Take `Cc1c(-c2ccccc2)oc2c(C(=O)OCCN3CCCCC3)cccc2c1=O` [FLAVOXATE]: the AC50 in [1] came out at 3.8 µM.
For the compound `CC(=O)OCC(=O)[C@@]1(O)CC[C@H]2[C@@H]3CCC4=CC(=O)CC[C@]4(C)[C@H]3C(=O)C[C@@]21C` [CORTISONE ACETATE], the AC50 in [3], in assay [11], in [6] and in assay [9] was > 30 µM in each case.
Take `CCOC(=O)N[C@@H]1CC[C@@H]2[C@@H](C1)C[C@H]1C(=O)O[C@H](C)[C@H]1[C@H]2/C=C/c1ccc(-c2cccc(F)c2)cn1` [VORAPAXAR]: in [1], the concentration at half-maximal activity (AC50) was determined as 3.9 µM.
On the same count and under the same terms, to `CC(=O)Oc1c(C)cc(OCC(O)CNC(C)C)c(C)c1C` (stereo not drawn) [METIPRANOLOL] belongs > 30 µM.
Consider `C#C[C@]1(O)CC[C@H]2[C@@H]3CCc4cc(O)ccc4[C@H]3CC[C@@]21C` [ETHINYL ESTRADIOL], for which the AC50 in assay [2] was > 30 µM; in [3], 16 µM; in [1], > 30 µM; in [12], 2.81 µM; in [11], > 30 µM; in [4], > 30 µM. Besides, the concentration at half-maximal activity (AC50) was > 10 µM in [5]; > 10 µM in [13]; > 30 µM in assay [6]; > 30 µM in [7]; > 10 µM in assay [8]; 5.7 µM in [9]. This compound gave a half-maximal activity concentration (AC50) in [10] of 16 µM.
Turning to `O=C1CC[C@@]2(O)[C@H]3Cc4ccc(O)c5c4[C@@]2(CCN3CC2CC2)[C@H]1O5` [NALTREXONE], in [1], the AC50 was > 30 µM.
Still for that read-out and setting: to `O=C1[C@H](CC[C@H](O)c2ccc(F)cc2)[C@@H](c2ccc(O)cc2)N1c1ccc(F)cc1` [EZETIMIBE] belongs 16 µM; to `CCO/N=C(\C(=O)N[C@@H]1C(=O)N2C(C(=O)[O-])=C(Sc3nc(-c4cc[n+](C)cc4)cs3)CS[C@H]12)c1nsc(N)n1` [CEFTAROLINE], 26 µM.
Still for that read-out and setting: to `C[N+](C)(C)CCCCCCCCCC[N+](C)(C)C` [DECAMETHONIUM] belongs > 30 µM.
In the case of `CN(C)CCCN1c2ccccc2CCc2ccc(Cl)cc21` [CLOMIPRAMINE], the half-maximal activity concentration (AC50) is 14.6 µM in assay [12]; 0.53 µM in assay [11]; > 10 µM in assay [13]; > 30 µM in assay [6]; 0.3 µM in assay [8]; > 30 µM in assay [9].
For the compound `CC(O)CO` (stereo not drawn) [PROPYLENE GLYCOL], the concentration at half-maximal activity (AC50) in assay [1] was > 30 µM.
As to `O=C1c2ccccc2C(=O)C1C(=O)C(c1ccccc1)c1ccccc1` [DIPHENADIONE], the AC50 in assay [1] was > 30 µM.
Turning to `CC(C)OC(=O)[C@H](C)N[P@](=O)(OC[C@H]1O[C@@H](n2ccc(=O)[nH]c2=O)[C@](C)(F)[C@@H]1O)Oc1ccccc1` [SOFOSBUVIR], the half-maximal activity concentration (AC50) in assay [1] is > 30 µM.
As for `CC(N)Cc1ccccc1` (stereo not drawn) [AMPHETAMINE], the AC50 was 11 µM in assay [2]; > 30 µM in assay [3]; > 30 µM in assay [1]; > 30 µM in assay [11]; > 30 µM in assay [4]; > 30 µM in [5]. In addition, the concentration at half-maximal activity (AC50) in assay [13], in assay [6], in assay [7], in assay [8], in assay [9] and in assay [10] was > 30 µM in each case.
As to `Sc1ncnc2nc[nH]c12` [MERCAPTOPURINE ANHYDROUS], the AC50 in assay [1] is > 30 µM.
Regarding `Cc1cc(O)cc(C)c1Cl` [CHLOROXYLENOL], in assay [1], the AC50 was > 30 µM.
Turning to `Cc1ccc(O)c2ncccc12` [TILIQUINOL], the AC50 in assay [1] was > 30 µM.
Turning to `O=C(NC[C@H]1CN(c2ccc(N3CCOCC3=O)cc2)C(=O)O1)c1ccc(Cl)s1` [RIVAROXABAN], the AC50 in [3], in assay [12], in assay [11], in assay [13], in assay [6] and in assay [14] was > 30 µM each time. Moreover, the half-maximal activity concentration (AC50) in assay [8], in assay [9] and in assay [10] was > 30 µM throughout.
As for `O=C(COc1ccc(Cl)cc1)N1CCN(Cc2ccc3c(c2)OCO3)CC1` [FIPEXIDE], the half-maximal activity concentration (AC50) in assay [1] turned out to be 12 µM.
As to `CC(N/C(=N\C#N)Nc1ccncc1)C(C)(C)C` (stereo not drawn) [PINACIDIL ANHYDROUS], the AC50 in assay [1] was > 30 µM.
On to `Cc1cccc(C)c1OCC(C)N` (stereo not drawn) [MEXILETINE], for which the AC50 in assay [2], in [3], in [1], in assay [12], in assay [4] and in [5] was > 30 µM throughout. Besides, the AC50 in assay [13], in [7], in assay [14], in [9] and in [10] was > 30 µM in each case.
Turning to `C#C[C@]1(O)CC[C@H]2[C@@H]3CCC4=CC(=O)CC[C@@H]4[C@H]3CC[C@@]21CC` [LEVONORGESTREL], the AC50 in assay [1] was > 30 µM.
Same read-out and setting: for `CN1CCCC(CN2c3ccccc3Sc3ccccc32)C1` (stereo not drawn) [MEPAZINE] the value was 3.77 µM.
Same read-out and setting: to `CCOC(=O)c1ccc(O)cc1` [ETHYLPARABEN] belongs > 30 µM.
Consider `CC1(C)O[C@@H]2C[C@H]3[C@@H]4C[C@H](F)C5=CC(=O)CC[C@]5(C)[C@H]4[C@@H](O)C[C@]3(C)[C@]2(C(=O)CO)O1` [FLURANDRENOLIDE], for which the AC50 in [1] is > 30 µM.
Consider `C[N+]1(C)[C@@H]2C[C@@H](OC(=O)[C@H](CO)c3ccccc3)C[C@H]1[C@@H]1O[C@@H]12` [METHSCOPOLAMINE], for which, in assay [1], the half-maximal activity concentration (AC50) was > 30 µM.
